Measurements from ChEMBL document CHEMBL1201862, “PubChem BioAssay data set” (2004).
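All cell lines were grown in 96-well plates and treated with compound for 48 hours. The concentration for 50% growth inhibition is given as GI50.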 The source made the active and inactive calls. Cut-off read from the data, not from the text of the source: active = GI50 up to about 1.1 µM and inactive = higher.

Tests used:
Assay in all cases: inhibition of tumour cell growth, NCI panel, 48 h
HOP-92 = test system: HOP-92
HCC 2998 = test system: HCC 2998
Malme-3M = test system: Malme-3M
PC-3 = test system: PC-3
DU-145 = test system: DU-145
UACC-257 = test system: UACC-257
A549 = test system: A549
HL-60 = test system: HL-60
OVCAR-3 = test system: OVCAR-3
EKVX = test system: EKVX
MDA-MB-231 = test system: MDA-MB-231
A498 = test system: A498
NCI-H226 = test system: NCI-H226
MOLT-4 = test system: MOLT-4
M14 = test system: M14
Hs-578T = test system: Hs-578T
UO-31 = test system: UO-31
SK-MEL-28 = test system: SK-MEL-28
OVCAR-4 = test system: OVCAR-4
TK-10 = test system: TK-10

Measured: GI50

Cc1ccc(S(=O)(=O)N2CCNCCN(S(=O)(=O)c3ccc(C)cc3)CCN(S(=O)(=O)c3ccc(C)cc3)CC2)cc1
inactive: HOP-92 70.8 µM | HCC 2998 > 100 µM | Malme-3M > 100 µM | PC-3 > 100 µM | DU-145 > 100 µM | UACC-257 > 100 µM | A549 > 100 µM | HL-60 > 100 µM | OVCAR-3 > 100 µM | EKVX > 100 µM | MDA-MB-231 > 100 µM | A498 > 100 µM | NCI-H226 > 100 µM | MOLT-4 > 100 µM | M14 > 100 µM | Hs-578T > 100 µM | UO-31 > 100 µM | SK-MEL-28 > 100 µM | OVCAR-4 > 100 µM | TK-10 > 100 µM
